The values that follow come from patent US9549911B2, “Ginger metabolites and uses thereof” (North Carolina A&T State University, priority 2012, dated 2017).

Broadly, the IC50 is the concentration that inhibits the measured activity by half.

Test [1] has as its system human colon fibroblast cells CCD-18Co. As to the kind of experiment: MTT toxicity in colon cancer and normal colon cells (Part 5). It counts as cell-based. The settings on record: normal colon cells CCD-18Co, 24 hours. The method, then: (§1) Cell viability was determined by an MTT colorimetric assay. […] The reading reflected the number of viable cells and was expressed as a percentage of viable cells in the control. CCD-18Co cells were grown in EMEM. Both HCT-116 and HT-29 cells were cultured in McCoy's 5A medium. All of the above media were supplemented with 10% fetal bovine serum, 1% penicillin/streptomycin, and 1% glutamine, and the cells were kept in a 37° C. incubator with 95% humidity and 5% CO2.

In test [2] the test system is human colon cancer cells HT-29. The description is as above. As to conditions: HT-29 (p53 mutant), 24 hours. It counts as cell-based. The method, then:
as §1

Test [3] concerns human colon cancer cells HCT-116. The test is described as above. As to conditions: HCT-116, 24 hours. It counts as cell-based. The method, then:
as §1

The test system of test [4] is HCT-116 cells. As to the kind of experiment: Western blot analysis of apoptosis markers and p53 (Part 5). It counts as cell-based, human. The settings on record: HCT-116 (p53 wild-type), 24 hours; M2, 6S 10, 20 or 40 μM; 8S, M2′, 10S, M2″ 20 μM. The method, then: (§2) Cell lysates were prepared in ice-cold RIPA lysis buffer [25 mM Tris-HCl (pH 7.6), 150 mM NaCl, 1% NP-40, 1% sodium deoxycholate, 0.1% SDS, Thermo Fisher Scientific] supplemented with a protease inhibitor cocktail (AEBSF, aprotinin, bestatin, E-64, leupeptin and pepstatin A in DMSO with EDTA, Thermo Fisher Scientific). Protein content was measured by a Pierce BCA Assay Kit (Thermo Fisher Scientific). Protein contents of cell lysates (30 μg protein/lane) were resolved by SDS-PAGE. Proteins were then electro-transferred onto PVDF membranes and blots were blocked for one hour at room temperature in 1×TBS with 1% Casein (Bio-Rad Laboratories, Berkeley, Calif.). Blots were then incubated overnight at 4° C. with the desired primary antibody diluted in TBS with 0.5% Tween-20. Blots were then washed with TBS-Tween 20 and probed for 1 hour with the appropriate secondary antibody (1:1000). Protein bands were visualized with chemiluminescence using West Femto maximum detection substrate (Thermo Fisher Scientific). To confirm equal protein loading in each lane, immunoblots were stripped and re-probed for β-actin. Protein fold-induction was calculated by normalizing the intensity of the band of interest to β-actin first, and then to DMSO control lanes.
For orientation: In western blotting, separated proteins are transferred to a membrane and probed.

The subject of test [5] is HT-29 cells. The description is as above. It counts as cell-based, human. As to conditions: HT-29 (p53 mutant), 24 hours; M2, 6S 10, 20 or 40 μM; 8S, M2′, 10S, M2″ 20 μM. The method, then:
as §2

The test system of test [6] is human lung cancer cells H-1299. As to the kind of experiment: MTT growth inhibition by M14 and M15 (Part 3). It counts as cell-based. The settings on record: Homo sapiens, NCI-H1299; H-1299, 24 hours, 0 to 80 μM; read-out: IC50 (cell viability, MTT). On the procedure:
(§3) Cell growth inhibition was determined by a MTT colorimetric assay. […] The reading reflected the number of viable cells and was expressed as a percentage of viable cells in the control. Both HCT-116 and H-1299 cells were cultured in McCoy's 5A medium. All of the above media were supplemented with 10% fetal bovine serum, 1% penicillin/streptomycin, and 1% glutamine, and the cells were kept in a 37° C. incubator with 95% humidity and 5% CO2.

In test [7] the test system is human colon cancer cells HCT-116. As to the kind of experiment: MTT growth inhibition by M14 and M15 (Part 3). It counts as cell-based. As to conditions: Homo sapiens; HCT-116, 24 hours, 0 to 80 μM; read-out: IC50 (cell viability, MTT). The method, then:
as §3

Test [8] relates to human lung cancer cells H-1299. Nature of the test: Cell Death Detection ELISA apoptosis induction (Part 3). It counts as cell-based. As to conditions: 24 hours. The method, then: (§4) Human colon cancer cells HCT-116 and human lung cancer cells H-1299 were plated in 96-well plates at a density of 5000 cells/well and allowed to attach overnight at 37° C. M14, M15, or [6]-shogaol in DMSO, or DMSO control, diluted in media, were added to cells and incubated for an additional 24 hours at 37° C. After 24 hours, media containing compound was removed and cells were lysed in their respective wells with reagents from a Cell Death Detection ELISA^PLUS kit from Roche Applied Science (Mannheim, Germany). Samples were harvested after cell lysates were spun down at 300 g for 10 minutes. To streptavidin coated microplates, 20 μL samples were added, and mixed with 80 μL Immunoreagent, which consisted of anti-histone-biotin, and anti-DNA-POD, and incubated with gentle shaking for 2 hours at room temperature. After incubation, Immunoreagent was removed and samples were washed 3 times with 250 μL incubation buffer. Substrate solution, ABTS, was added to each well and color was developed for 15 minutes before stopping the reaction with ABTS stop solution and reading absorbance on a microplate reader at 430 nm. Experiments were performed in triplicate and the average is given in comparison to DMSO control with standard deviation.
A general note: ELISA stands for enzyme-linked immunosorbent assay.

Test [9] concerns human colon cancer cells HCT-116. Described as above. It counts as cell-based. As to conditions: 24 hours. On the procedure:
as §4

The test system of test [10] is A549 lung cancer cells. As to conditions: 6S 30 mg/kg, M2 30 mg/kg, M14 10 mg/kg, oral gavage 5×/week, 7 weeks. On the procedure: Nu/J nude mice were obtained from Jackson Laboratories (Bar Harbor, Me.). Animals were randomized into 4 groups. A549 cells (5×10^6 cells) were implanted in both flanks of 8-weeks old Nu/J mice. One week after implantation, animals were given 100 μl of the following treatments through oral gavage 5 times/week: DMSO 0.25 ml/kg (control; n=4); 6S 10 mg/kg (n=4); 6S 30 mg/kg (n=4) or M2 30 mg/kg (n=5). Compounds were diluted in a solution of 5% DMSO in corn oil. Animal body weight and tumor volume were recorded for the duration of the experiment. Tumor volume was calculated by measuring the length and width of the tumors using a digital caliper and using the formula (Length×Width^2)/2. One hour before sacrifice, mice were given one last treatment dose as well as one intra-peritoneal injection of BrdU (7.5 mg/kg in 100 μl PBS). After 7 weeks, tumor tissues were harvested and weighed. A portion of the tumors was snap frozen in liquid nitrogen and another portion was placed in a histology cassette and immersed in formalin solution.
[…] tissues were sent to Precision Histology Lab (Oklahoma City, Okla.) for embedding in paraffin blocks. Then paraffin blocks were processed into 3-4 μm sections that were then put on microscope slides. Sections were then deparaffinized by using a succession of 3 baths of xylene (5 minutes each), 2 baths of absolute ethanol (5 minutes each), 95% ethanol for 3 minutes, 70% ethanol for 3 minutes, and rinsed in PBS. Immunostaining with TUNEL (terminal deoxynucleotidyl transferase dUTP nick end labeling) and BrdU staining kits was performed following manufacturer's recommendation. For staining quantification, sequential high-power field pictures of tumors were taken (10 pictures per tumor) using an A1 Zeiss microscope (Oberkochen, Germany). Images were processed using the Image J software, which was used to count positive, brown-colored cells in each field. Average number per tumor was calculated by averaging the number obtained for each field, and the average number of positive cells per group was obtained by averaging the values of each tumor belonging to the experimental group.
8 week-old nude mice (Jackson Laboratory, Maine) were randomized into 5 groups based on treatment (DMSO: n=4; 6S 10 mg/kg: n=4 (“6S 10”); 6S 30 mg/kg: n=4 (“6S 30”); M2 30 mg/kg: n=5 (“M2 30”); M14 10 mg/kg: n=4 (“M14 10”)). Animals were implanted with 5×10^6 A549 lung cancer cells (adenocarcinomic human alveolar basal epithelial cells) on each flank. The mice had access to food and water ad libitum. One week post implantation, the animals started receiving their respecting treatments through oral gavage (100 μl in corn oil and 5% DMSO), 5×/week. After 7 weeks of treatment, the tumor tissues were harvested.

Test [11] can be described thus: Chemical inhibition of [6]-shogaol metabolism in liver microsomes. It counts as in vitro ADME, human. The settings on record: inhibitor 500 μM, 20 min pre-incubation, [6]-shogaol 50 μM, 30 min. On the procedure:
Inhibitors ABT (500 μM) and 18β-GA (500 μM) or DMSO controls were pre-incubated with microsomes in experimental incubation mixture at 37° C. for 20 minutes before initiating the reaction by the addition of [6]-shogaol (50 μM). Reactions were terminated 30 minutes after substrate addition and incubation in a 37° C. water bath by equal volume of ice-cold acetonitrile with 2% acetic acid. The mixture was vortexed and underwent centrifugation at 13,000 g for 10 minutes. Aliquots of supernatant were stored at −20° C. until analysis.
(Microsomes from liver hold many membrane-bound enzymes, among them those of drug oxidation.)

On to `CCCCCCCCC/C=C/C(=O)CCc1ccc(O)c(OC)c1` [10S, [10]-shogaol, reference compound], for which the IC50 in test [1] amounted to 136 µM; in [2] it was 23.9 µM; in test [3] it was 25.1 µM. Moreover, the “p53 expression (Western blot)” value in [4] and in test [5] was “increase in p53 accumulation” each time.

In the case of `CCCCC/C=C/C(=O)/C=C/c1ccc(O)c(OC)c1` [M14, (1E, 4E)-1-(4′-hydroxy-3′-methoxyphenyl)-deca-1,4-dien-3-one], the half-inhibitory concentration (IC50) is 3.04 µM in test [6] and 3.22 µM in test [7]. The “induction of apoptosis compared to DMSO control” value in test [8] (H-1299, 1 μM) is on record as 1 fold; in test [8] (H-1299, 10 μM) it was 7-8 fold; in test [9] (HCT-116, 1 μM), 2 fold; in test [9] (HCT-116, 10 μM), “about 6 fold”. Besides, the “tumor size versus control group” value in [10] was “Reduction in tumor size”.

As for `CC1(C)[C@@H](O)CC[C@]2(C)[C@H]3C(=O)C=C4[C@@H]5C[C@@](C)(C(=O)O)CC[C@]5(C)CC[C@@]4(C)[C@]3(C)CC[C@@H]12` [18β-glycyrrhetinic acid], in test [11], the “effect on reductive metabolism of [6]-shogaol” value was “decimated the reductive metabolism”.

`CCCCCCC/C=C/C(=O)CCc1ccc(O)c(OC)c1` [8S, [8]-shogaol, reference compound]: the IC50 in [1] was determined as 105 µM; in [2], 27.9 µM; in test [3], 22.8 µM. Further, the “p53 expression (Western blot)” value in [4] and in test [5] was “increase in p53 accumulation” each time.

Turning to `CCCCCCCC(=O)/C=C/c1ccc(O)c(OC)c1` [M15, (E)-1-(4′-hydroxy-3′-methoxyphenyl)-dec-1-en-3-one], the IC50 in test [6] was 41.6 µM; in [7], 43 µM. The “induction of apoptosis compared to DMSO control” value in test [8] (H-1299, 10 μM) is approximately 2 fold; in test [9] (HCT-116, 10 μM), 1 fold.
